Reference: article PMC12420824, “Discovery of a selective alpha-kinase 1 inhibitor for the rare genetic disease ROSAH syndrome” (Nature Communications, 2025)
Values joined by “and” are separate entries in the source; they are usually repeats but may differ in a detail not shown here. Equal entries are not always repeated.

Key:
[1] = molecular target: CDK16/cyclin Y (PCTAIRE) (Homo sapiens, UniProt Q00536); assay: biochemical; details: read-out: % Enzyme Activity (relative to DMSO control), 10 uM
Text: (§1) Additionally, a 10-dose dilution series of staurosporine and other enzyme-appropriate compounds were included as positive control inhibitors.

[2] = molecular target: CAMK2a (Homo sapiens, UniProt Q9UQM7); assay: HotSpot kinase assay; details: read-out: % Enzyme Activity (relative to DMSO control), 10 uM
[3] = molecular target: CAMK1d (Homo sapiens, UniProt Q8IU85); assay: HotSpot kinase assay; details: read-out: % Enzyme Activity (relative to DMSO control), 10 uM
Text: as §1

[4] = molecular target: TYRO3/SKY (Homo sapiens, UniProt Q06418); assay: HotSpot kinase assay; details: read-out: % Enzyme Activity (relative to DMSO control), 10 uM
Text: as §1

[5] = molecular target: PASK (Homo sapiens, UniProt Q96RG2); assay: HotSpot kinase assay; details: read-out: % Enzyme Activity (relative to DMSO control), 10 uM
Text: as §1

[6] = molecular target: MEKK6 (Homo sapiens, UniProt O95382); assay: HotSpot kinase assay; details: read-out: % Enzyme Activity (relative to DMSO control), 10 uM
Text: as §1

[7] = molecular target: MYO3A (Homo sapiens, UniProt Q8NEV4); assay: HotSpot kinase assay; details: read-out: % Enzyme Activity (relative to DMSO control), 10 uM
Text: as §1

[8] = molecular target: TNIK (Homo sapiens, UniProt Q9UKE5); assay: HotSpot kinase assay; details: read-out: % Enzyme Activity (relative to DMSO control), 10 uM
[9] = molecular target: PKCIOTA (Homo sapiens, UniProt P41743); assay: HotSpot kinase assay; details: read-out: % Enzyme Activity (relative to DMSO control), 10 uM
Text: as §1

[10] = molecular target: CDK6/cyclin D3 (Homo sapiens, UniProt Q00534); assay: HotSpot kinase assay; details: read-out: % Enzyme Activity (relative to DMSO control), 10 uM
Text: as §1

[11] = molecular target: TYK2 (Homo sapiens, UniProt P29597); assay: HotSpot kinase assay; details: read-out: % Enzyme Activity (relative to DMSO control), 10 uM
Text: as §1

[12] = molecular target: LKB1 (Homo sapiens, UniProt Q15831); assay: HotSpot kinase assay; details: read-out: % Enzyme Activity (relative to DMSO control), 10 uM
Text: as §1

[13] = molecular target: MYLK3 (Homo sapiens, UniProt Q32MK0); assay: HotSpot kinase assay; details: read-out: % Enzyme Activity (relative to DMSO control), 10 uM
[14] = molecular target: ABL1 (Homo sapiens, UniProt P00519); assay: HotSpot kinase assay; details: read-out: % Enzyme Activity (relative to DMSO control), 10 uM
Text: as §1

[15] = molecular target: PKCzeta (Homo sapiens, UniProt Q05513); assay: HotSpot kinase assay; details: read-out: % Enzyme Activity (relative to DMSO control), 10 uM
Text: as §1

[16] = molecular target: CLK2 (Homo sapiens, UniProt P49760); assay: HotSpot kinase assay; details: read-out: % Enzyme Activity (relative to DMSO control), 10 uM
Text: as §1

[17] = molecular target: c-MET (Homo sapiens, UniProt P08581); assay: HotSpot kinase assay; details: read-out: % Enzyme Activity (relative to DMSO control), 10 uM
Text: as §1

[18] = molecular target: mTOR/FRAP1 (Homo sapiens, UniProt P42345); assay: HotSpot kinase assay; details: read-out: % Enzyme Activity (relative to DMSO control), 10 uM
Text: as §1

[19] = molecular target: ERN1/IRE1 (Homo sapiens, UniProt O75460); assay: HotSpot kinase assay; details: read-out: % Enzyme Activity (relative to DMSO control), 10 uM
Text: as §1

[20] = molecular target: CDK3/cyclin E (Homo sapiens, UniProt Q00526); assay: HotSpot kinase assay; details: read-out: % Enzyme Activity (relative to DMSO control), 10 uM
Text: as §1

[21] = molecular target: CK1g1 (Homo sapiens, UniProt Q9HCP0); assay: HotSpot kinase assay; details: read-out: % Enzyme Activity (relative to DMSO control), 10 uM
Text: as §1

[22] = molecular target: TLK1 (Homo sapiens, UniProt Q9UKI8); assay: HotSpot kinase assay; details: read-out: % Enzyme Activity (relative to DMSO control), 10 uM
Text: as §1

[23] = molecular target: CK1a1L (Homo sapiens, UniProt Q8N752); assay: HotSpot kinase assay; details: read-out: % Enzyme Activity (relative to DMSO control), 10 uM
[24] = molecular target: JNK1 (Homo sapiens, UniProt P45983); assay: HotSpot kinase assay; details: read-out: % Enzyme Activity (relative to DMSO control), 10 uM
Text: as §1

[25] = molecular target: FLT4/VEGFR3 (Homo sapiens, UniProt P35916); assay: HotSpot kinase assay; details: read-out: % Enzyme Activity (relative to DMSO control), 10 uM
[26] = molecular target: MINK/MINK1 (Homo sapiens, UniProt Q8N4C8); assay: HotSpot kinase assay; details: read-out: % Enzyme Activity (relative to DMSO control), 10 uM
Text: as §1

[27] = molecular target: STK32B/YANK2 (Homo sapiens, UniProt Q9NY57); assay: HotSpot kinase assay; details: read-out: % Enzyme Activity (relative to DMSO control), 10 uM
Text: as §1

[28] = molecular target: NEK9 (Homo sapiens, UniProt Q8TD19); assay: HotSpot kinase assay; details: read-out: % Enzyme Activity (relative to DMSO control), 10 uM
[29] = molecular target: HIPK1 (Homo sapiens, UniProt Q86Z02); assay: HotSpot kinase assay; details: read-out: % Enzyme Activity (relative to DMSO control), 10 uM
Text: as §1

[30] = molecular target: WNK2 (Homo sapiens, UniProt Q9Y3S1); assay: HotSpot kinase assay; details: read-out: % Enzyme Activity (relative to DMSO control), 10 uM
[31] = molecular target: P38d/MAPK13 (Homo sapiens, UniProt O15264); assay: HotSpot kinase assay; details: read-out: % Enzyme Activity (relative to DMSO control), 10 uM
Text: as §1

[32] = molecular target: AMPK(A1/B1/G2) (Homo sapiens, UniProt Q13131); assay: HotSpot kinase assay; details: read-out: % Enzyme Activity (relative to DMSO control), 10 uM
Text: as §1

[33] = molecular target: PLK1 (Homo sapiens, UniProt P53350); assay: HotSpot kinase assay; details: read-out: % Enzyme Activity (relative to DMSO control), 10 uM
[34] = molecular target: PAK3 (Homo sapiens, UniProt O75914); assay: HotSpot kinase assay; details: read-out: % Enzyme Activity (relative to DMSO control), 10 uM
Text: as §1

[35] = molecular target: ERBB4/HER4 (Homo sapiens, UniProt Q15303); assay: HotSpot kinase assay; details: read-out: % Enzyme Activity (relative to DMSO control), 10 uM
Text: as §1

[36] = molecular target: SRPK1 (Homo sapiens, UniProt Q96SB4); assay: HotSpot kinase assay; details: read-out: % Enzyme Activity (relative to DMSO control), 10 uM
Text: as §1

[37] = molecular target: PKCa (Homo sapiens, UniProt P17252); assay: HotSpot kinase assay; details: read-out: % Enzyme Activity (relative to DMSO control), 10 uM
Text: as §1

[38] = tested on: NF-κB reporter HEK-293 cells overexpressing ALPK1; assay: NF-κB luciferase reporter

Chain of AMPK(A1/B1/G2) (Q13131 whole entry): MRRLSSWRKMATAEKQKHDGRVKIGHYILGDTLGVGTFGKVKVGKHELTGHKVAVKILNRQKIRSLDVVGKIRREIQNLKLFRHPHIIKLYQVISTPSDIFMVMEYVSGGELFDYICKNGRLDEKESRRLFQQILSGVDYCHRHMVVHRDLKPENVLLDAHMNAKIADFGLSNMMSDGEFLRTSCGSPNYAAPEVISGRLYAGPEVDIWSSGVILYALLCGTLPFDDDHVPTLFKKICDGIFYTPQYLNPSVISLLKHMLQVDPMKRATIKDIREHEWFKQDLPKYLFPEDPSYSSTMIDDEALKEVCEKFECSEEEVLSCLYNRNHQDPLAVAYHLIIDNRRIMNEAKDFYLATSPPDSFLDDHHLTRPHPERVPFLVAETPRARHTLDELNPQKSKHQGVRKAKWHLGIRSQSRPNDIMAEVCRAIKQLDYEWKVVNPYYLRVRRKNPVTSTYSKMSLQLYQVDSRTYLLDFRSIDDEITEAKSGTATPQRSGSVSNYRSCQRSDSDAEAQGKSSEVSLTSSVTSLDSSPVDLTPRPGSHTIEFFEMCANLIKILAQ
Chain of AMPK(A1/B1/G2) (Q9Y478 whole entry partner): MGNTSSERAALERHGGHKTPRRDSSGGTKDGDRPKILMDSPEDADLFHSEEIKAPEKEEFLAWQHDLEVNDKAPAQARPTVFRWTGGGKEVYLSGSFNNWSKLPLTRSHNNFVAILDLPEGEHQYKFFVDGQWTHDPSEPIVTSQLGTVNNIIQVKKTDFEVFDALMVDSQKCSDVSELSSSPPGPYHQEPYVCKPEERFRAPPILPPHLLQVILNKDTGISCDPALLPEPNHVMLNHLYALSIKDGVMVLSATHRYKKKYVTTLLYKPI
Chain of AMPK(A1/B1/G2) (Q9UGJ0 whole entry partner): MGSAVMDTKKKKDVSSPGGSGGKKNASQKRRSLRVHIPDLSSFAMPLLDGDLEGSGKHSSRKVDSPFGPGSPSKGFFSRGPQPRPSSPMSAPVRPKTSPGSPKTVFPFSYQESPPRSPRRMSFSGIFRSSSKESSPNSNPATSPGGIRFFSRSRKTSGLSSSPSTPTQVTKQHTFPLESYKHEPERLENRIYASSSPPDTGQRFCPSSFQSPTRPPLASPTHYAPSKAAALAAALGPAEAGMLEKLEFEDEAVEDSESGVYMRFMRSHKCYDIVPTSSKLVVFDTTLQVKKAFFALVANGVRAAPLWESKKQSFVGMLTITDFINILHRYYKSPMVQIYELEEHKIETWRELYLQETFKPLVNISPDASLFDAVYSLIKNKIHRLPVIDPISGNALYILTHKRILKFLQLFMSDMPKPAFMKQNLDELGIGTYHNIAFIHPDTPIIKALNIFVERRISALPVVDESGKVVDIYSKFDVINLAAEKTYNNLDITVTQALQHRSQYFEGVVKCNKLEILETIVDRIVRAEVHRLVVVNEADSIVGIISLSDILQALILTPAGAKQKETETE
Chain of PKCIOTA (P41743 whole entry): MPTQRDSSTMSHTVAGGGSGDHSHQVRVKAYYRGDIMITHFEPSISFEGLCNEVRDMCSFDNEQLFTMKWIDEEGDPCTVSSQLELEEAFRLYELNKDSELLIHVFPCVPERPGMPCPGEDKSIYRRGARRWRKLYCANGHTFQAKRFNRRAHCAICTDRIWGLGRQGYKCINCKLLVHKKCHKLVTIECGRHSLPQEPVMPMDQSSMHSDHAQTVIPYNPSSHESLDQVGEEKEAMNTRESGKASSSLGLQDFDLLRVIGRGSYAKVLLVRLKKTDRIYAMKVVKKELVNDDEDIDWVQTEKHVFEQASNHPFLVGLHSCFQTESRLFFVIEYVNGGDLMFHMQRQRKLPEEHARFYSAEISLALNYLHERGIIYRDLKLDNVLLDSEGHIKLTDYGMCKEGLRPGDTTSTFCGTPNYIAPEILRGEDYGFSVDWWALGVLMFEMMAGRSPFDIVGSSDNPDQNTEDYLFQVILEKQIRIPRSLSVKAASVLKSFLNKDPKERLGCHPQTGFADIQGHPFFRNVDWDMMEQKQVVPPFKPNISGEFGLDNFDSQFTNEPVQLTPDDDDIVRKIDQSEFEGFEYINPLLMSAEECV
Chain of CDK6/cyclin D3 (Q00534 whole entry): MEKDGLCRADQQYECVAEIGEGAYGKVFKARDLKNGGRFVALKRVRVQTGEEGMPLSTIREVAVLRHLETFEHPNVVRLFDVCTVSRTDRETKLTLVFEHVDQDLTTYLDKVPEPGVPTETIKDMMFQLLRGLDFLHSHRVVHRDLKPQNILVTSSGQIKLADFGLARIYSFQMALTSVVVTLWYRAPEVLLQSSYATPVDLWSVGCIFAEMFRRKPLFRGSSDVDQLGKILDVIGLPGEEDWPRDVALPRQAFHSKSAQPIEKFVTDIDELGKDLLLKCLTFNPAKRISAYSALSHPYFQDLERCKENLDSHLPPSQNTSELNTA
Chain of CDK6/cyclin D3 (P30281 whole entry partner): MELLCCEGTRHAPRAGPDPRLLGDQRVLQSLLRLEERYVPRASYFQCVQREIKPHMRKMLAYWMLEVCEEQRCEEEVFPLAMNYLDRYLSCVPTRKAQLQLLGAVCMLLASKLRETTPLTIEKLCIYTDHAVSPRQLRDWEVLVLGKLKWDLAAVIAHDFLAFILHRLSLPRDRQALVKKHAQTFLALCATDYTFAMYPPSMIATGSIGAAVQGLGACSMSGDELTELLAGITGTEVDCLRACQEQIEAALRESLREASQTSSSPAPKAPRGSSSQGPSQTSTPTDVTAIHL
Chain of MYLK3 (Q32MK0 whole entry): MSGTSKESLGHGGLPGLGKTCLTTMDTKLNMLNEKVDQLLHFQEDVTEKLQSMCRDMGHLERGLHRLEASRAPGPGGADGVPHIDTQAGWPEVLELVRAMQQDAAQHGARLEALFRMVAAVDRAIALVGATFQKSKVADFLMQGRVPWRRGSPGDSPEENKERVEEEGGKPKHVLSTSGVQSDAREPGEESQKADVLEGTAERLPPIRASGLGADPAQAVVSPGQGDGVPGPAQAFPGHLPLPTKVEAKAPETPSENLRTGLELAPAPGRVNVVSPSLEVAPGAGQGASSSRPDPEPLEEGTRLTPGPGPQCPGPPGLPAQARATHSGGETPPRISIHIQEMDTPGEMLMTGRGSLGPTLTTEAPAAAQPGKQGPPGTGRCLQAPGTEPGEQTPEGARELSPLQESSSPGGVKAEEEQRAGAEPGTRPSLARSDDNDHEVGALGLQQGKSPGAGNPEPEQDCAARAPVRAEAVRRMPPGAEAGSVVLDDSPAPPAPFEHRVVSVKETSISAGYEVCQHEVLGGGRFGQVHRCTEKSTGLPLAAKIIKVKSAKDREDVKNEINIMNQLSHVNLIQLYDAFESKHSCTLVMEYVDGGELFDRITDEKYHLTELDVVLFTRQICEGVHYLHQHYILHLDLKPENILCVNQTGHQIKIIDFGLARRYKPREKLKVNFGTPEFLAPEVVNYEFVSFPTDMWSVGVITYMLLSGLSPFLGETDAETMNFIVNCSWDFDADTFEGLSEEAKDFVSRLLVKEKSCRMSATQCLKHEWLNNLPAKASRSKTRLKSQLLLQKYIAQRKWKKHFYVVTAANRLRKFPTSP
Chain of CLK2 (P49760 whole entry): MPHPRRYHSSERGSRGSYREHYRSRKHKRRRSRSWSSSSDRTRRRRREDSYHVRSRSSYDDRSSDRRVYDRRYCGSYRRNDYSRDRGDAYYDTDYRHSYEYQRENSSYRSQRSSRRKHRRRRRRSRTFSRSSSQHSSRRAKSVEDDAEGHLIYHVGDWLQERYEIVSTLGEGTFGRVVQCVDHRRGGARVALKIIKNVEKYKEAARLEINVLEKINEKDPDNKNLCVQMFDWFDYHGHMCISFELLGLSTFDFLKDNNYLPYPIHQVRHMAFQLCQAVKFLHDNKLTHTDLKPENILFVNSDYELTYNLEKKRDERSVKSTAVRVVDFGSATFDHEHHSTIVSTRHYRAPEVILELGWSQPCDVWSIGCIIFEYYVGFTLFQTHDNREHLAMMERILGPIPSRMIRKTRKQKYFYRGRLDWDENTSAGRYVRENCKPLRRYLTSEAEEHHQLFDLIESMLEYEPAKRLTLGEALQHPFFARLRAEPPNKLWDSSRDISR
Chain of P38d/MAPK13 (O15264 whole entry): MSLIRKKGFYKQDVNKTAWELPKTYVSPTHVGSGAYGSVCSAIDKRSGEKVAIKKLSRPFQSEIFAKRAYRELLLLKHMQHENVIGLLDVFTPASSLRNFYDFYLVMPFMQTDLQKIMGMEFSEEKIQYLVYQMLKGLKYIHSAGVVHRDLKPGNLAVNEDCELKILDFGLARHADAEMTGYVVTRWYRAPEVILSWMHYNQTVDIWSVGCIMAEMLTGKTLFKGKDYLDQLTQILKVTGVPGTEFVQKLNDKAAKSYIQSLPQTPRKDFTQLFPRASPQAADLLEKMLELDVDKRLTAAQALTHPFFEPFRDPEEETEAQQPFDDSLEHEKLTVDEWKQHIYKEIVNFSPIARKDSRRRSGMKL
Chain of CK1g1 (Q9HCP0 whole entry): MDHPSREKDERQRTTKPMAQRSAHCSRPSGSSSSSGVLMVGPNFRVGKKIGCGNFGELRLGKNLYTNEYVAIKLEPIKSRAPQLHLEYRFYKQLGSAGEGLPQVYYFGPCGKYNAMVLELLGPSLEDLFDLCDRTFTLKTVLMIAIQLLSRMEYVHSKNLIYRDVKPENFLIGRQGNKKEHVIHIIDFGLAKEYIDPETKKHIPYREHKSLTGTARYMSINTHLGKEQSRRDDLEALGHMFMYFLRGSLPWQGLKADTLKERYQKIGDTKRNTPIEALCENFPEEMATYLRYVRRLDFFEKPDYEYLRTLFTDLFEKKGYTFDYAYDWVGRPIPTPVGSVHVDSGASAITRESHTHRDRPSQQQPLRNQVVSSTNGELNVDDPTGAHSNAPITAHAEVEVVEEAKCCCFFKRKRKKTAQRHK

For `C#C[C@@](C)(c1ccc(Cl)cc1)c1csc(NC(=O)c2c(F)cc(N3CCNCC3)cc2F)n1` (stereo in doubt) [DF-003], the remaining activity at 10 µM [1] was 91.8%, the remaining activity at 10 µM [2] was 9.74% and the remaining activity at 10 µM [3] was 39.1%. For the same molecule, the remaining activity at 10 µM [4] was 51.8%, the remaining activity at 10 µM [5] was 56.5% and the remaining activity at 10 µM [6] was 73.4%. The remaining activity at 10 µM [7] was 75.5%, the remaining activity at 10 µM [8] was 75.5% and the remaining activity at 10 µM [9] was 77.5%. For the same molecule, the remaining activity at 10 µM [10] was 79.4%, the remaining activity at 10 µM [11] was 82.7% and the remaining activity at 10 µM [12] was 86.5%. The remaining activity at 10 µM [13] was 87.3%, the remaining activity at 10 µM [14] was 87.7% and the remaining activity at 10 µM [15] was 89.4%. For the same molecule, the remaining activity at 10 µM [16] was 90.6%, the remaining activity at 10 µM [17] was 90.7% and the remaining activity at 10 µM [18] was 92.1%. For the same molecule, the remaining activity at 10 µM [19] was 93.8%, the remaining activity at 10 µM [20] was 94.6% and the remaining activity at 10 µM [21] was 95%. For the same molecule, the remaining activity at 10 µM [22] was 96.5%, the remaining activity at 10 µM [23] was 97.2% and the remaining activity at 10 µM [24] was 97.7%. The remaining activity at 10 µM [25] was 98.2%, the remaining activity at 10 µM [26] was 98.7% and the remaining activity at 10 µM [27] was 99.6%. It also gave a remaining activity at 10 µM [28] of 100%, a remaining activity at 10 µM [29] of 104% and a remaining activity at 10 µM [30] of 104%. It also gave a remaining activity at 10 µM [31] of 104%, a remaining activity at 10 µM [32] of 114% and a remaining activity at 10 µM [33] of 114%. It also gave a remaining activity at 10 µM [34] of 117%, a remaining activity at 10 µM [35] of 121% and a remaining activity at 10 µM [36] of 125%. The remaining activity at 10 µM [37] was 134%, the Luciferase signal ([38]; OE ALPK1, DF-003 3.174 nM) was 1.097 and 1.020 and 1.022 and the Luciferase signal ([38]; OE ALPK1, DF-003 10.029 nM) was 0.986 and 1.052 and 0.781. The Luciferase signal ([38]; OE ALPK1, DF-003 31.691 nM) was 1.122 and 1.009 and 1.070, the Luciferase signal ([38]; OE ALPK1, DF-003 100.144 nM) was 1.037 and 1.150 and 1.192 and the Luciferase signal ([38]; OE ALPK1, DF-003 316.456 nM) was 1.532 and 0.863 and 1.106. For the same molecule, the Luciferase signal ([38]; OE ALPK1, DF-003 1000.000 nM) was 1.282 and 1.245 and 1.248, the Luciferase signal ([38]; OE ALPK1, DF-003 3160.000 nM) was 0.913 and 0.816 and 0.878 and the Luciferase signal ([38]; OE ALPK1, DF-003 10000.000 nM) was 1.096 and 0.857 and 1.177.
